Reference: patent publication US20110151258A1, “PREPARATION OF RANOLAZINE” (DR. REDDY'S LABORATORIES LTD., priority 2008, published 2011)

Tests used:
Type in all cases: physicochemical
[1] = Particle size distribution by light scattering (Malvern Master Sizer 2000); settings: for Particle size distribution: D10: 10th volume percentile particle size; for Particle size distribution: D50: 50th volume percentile particle size; for Particle size distribution: D90: 90th volume percentile particle size
Text: Particle size distributions of ranolazine particles may be measured by any technique known in the art. For example, particle size distributions of ranolazine particles may be measured using light scattering equipment, such as, for example, a Malvern Master Sizer 2000 from Malvern Instruments Limited, Malvern, Worcestershire, United Kingdom (helium neon laser source, ranolazine suspended in light liquid paraffin, size range: 0.01 μm to 3000 μm).

[2] = Specific surface area and span by light scattering (Malvern method); settings: for Specific surface area: method not stated at the place; for span: particle size distribution span
Text: (§1) In an embodiment, the present application provides a pharmaceutical composition comprising ranolazine having a specific surface area more than about 0.1 m^2/g, or more than about 0.5 m^2/g, or more than about 1 m^2/g, or more than about 2 m^2/g, or more than about 3 m^2/g, or more than about 5 m^2/g. “Specific surface area” as used herein, unless otherwise defined refers to the total particle surface […]. The specific surface area of ranolazine of the present invention may be measured by a BET (Brunauer, Emmett and Teller) specific surface method, such as using a Micromeritics Gemini surface area analyzer, model 2365. Samples for analysis are degassed at 40° C. under reduced pressure and the determination of the adsorption of nitrogen gas at 77° K may be measured for relative pressures in the range of 0.05-0.3. Specific surface area and span of ranolazine of the present application may be measured by using light scattering equipment, such as, for example, a Malvern Master Sizer 2000 (helium neon laser source, ranolazine suspended in light liquid paraffin, size range: 0.01 μm to 3000 μm).

[3] = Specific surface area by BET method
Text: as §1

[4] = Bulk density (USP Test 616, method 2)
Text: In an embodiment, the present application provides ranolazine having bulk densities less than about 0.8 g/mL, or less than about 0.5 g/mL, or less than about 0.3 g/mL. Bulk density may be determined using Test 616 “Bulk Density and Tapped Density,” as in United States Pharmacopoeia 29, United States Pharmacopeial Convention, Inc., Rockville, Md., 2005, in method 2.

| Structure (SMILES) | Particle size distribution: D10 [1] [μm] | Particle size distribution: D50 [1] [μm] | Particle size distribution: D90 [1] [μm] | Specific surface area [2] [m^2/g] | span [2] | Specific surface area by Malvern method [2] [m^2/g] | specific surface area by BET method [3] [m^2/g] | bulk density after tapping ([4]; after tapping) [g/mL] | bulk density before tapping ([4]; before tapping) [g/mL] |
| --- | --- | --- | --- | --- | --- | --- | --- | --- | --- |
| COc1ccccc1OCC(O)CN1CCN(CC(=O)Nc2c(C)cccc2C)CC1 (stereo not shown) [Example 14, Ranolazine] | 6.311 | 22.490 | 47.539 | 0.539 | 1.833 |  |  |  |  |
| COc1ccccc1OCC(O)CN1CCN(CC(=O)Nc2c(C)cccc2C)CC1 (stereo not shown) [Example 15, Ranolazine] | 5.272 | 18.656 | 57.748 | 0.655 | 2.813 |  |  |  |  |
| COc1ccccc1OCC(O)CN1CCN(CC(=O)Nc2c(C)cccc2C)CC1 (stereo not shown) [Example 16, Ranolazine] | 5.026 | 18.770 | 39.137 |  | 1.817 | 1.63 | 0.46 |  |  |
| COc1ccccc1OCC(O)CN1CCN(CC(=O)Nc2c(C)cccc2C)CC1 (stereo not shown) [Example 17, Ranolazine] | 1.324 | 5.140 | 11.116 |  | 1.905 | 1.99 | 2.54 |  |  |
| COc1ccccc1OCC(O)CN1CCN(CC(=O)Nc2c(C)cccc2C)CC1 (stereo not shown) [Example 18, Ranolazine] | 4.420 | 16.147 | 30.439 | 0.705 | 1.611 |  |  | 0.477 | 0.353 |
| COc1ccccc1OCC(O)CN1CCN(CC(=O)Nc2c(C)cccc2C)CC1 (stereo not shown) [Example 19, Ranolazine] | 13.262 | 41.574 | 89.060 | 0.291 | 1.823 |  |  |  |  |
